Assay results published in patent US20170190671A1, “BIS(ARYL)CATECHOL DERIVATIVES AS HERBICIDES” (E I DU PONT DE NEMOURS AND COMPANY, priority 2014, published 2017).

How the values were obtained:
Format in all cases: in vivo
[1] = test system: ragweed (common ragweed, Ambrosia elatior); assay: Test C preemergence; details: Ambrosia artemisiifolia, pre-emergence, 336 h, scale 0 to 100, read-out: Plant response rating, Ragweed
Summary of the method: (§1)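 Greenhouse test; preemergence to seeds in loam/sand soil, or postemergence spray to 2-18 cm, 1- to 4-leaf plants in peat/vermiculite medium; compound in non-phytotoxic solvent plus surfactant. Visual rating vs controls at 13-15 d, 0 = no effect, 100 = complete control.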

[2] = test system: galium (catchweed bedstraw, Galium aparine); assay: Test C preemergence; details: Galium, pre-emergence, 336 h, scale 0 to 100, read-out: Plant response rating, Galium
Summary of the method: as §1

[3] = test system: wheat (Triticum aestivum); assay: Test A postemergence; details: Triticum aestivum, post-emergence, 240 h, 0 to 100 scale, read-out: Plant response rating, Wheat
Summary of the method: (§2)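 Visual 0–100 rating (100 = complete control) taken about 10 d post-treatment relative to untreated checks. Preemergence: directed soil spray on sown loam/sand pots. Postemergence: seedlings 2–10 cm, 1–2 leaf. Non-phytotoxic solvent formulation with surfactant.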

[4] = test system: barnyardgrass (Echinochloa crus-galli); assay: Test A postemergence; details: Echinochloa crus-galli, post-emergence, 240 h, 0 to 100 scale, read-out: Plant response rating, Barnyardgrass
Summary of the method: as §2

[5] = test system: giant foxtail (Setaria faberii); assay: Test A postemergence; details: Setaria faberi, post-emergence, 240 h, 0 to 100 scale, read-out: Plant response rating, Foxtail, Giant
Summary of the method: as §2

corn (Zea mays) = assay: Test A postemergence; details: Zea mays, post-emergence, 240 h, 0 to 100 scale
Summary of the method: as §2

[6] = test system: ragweed (common ragweed, Ambrosia elatior); assay: Test A postemergence; details: Ambrosia artemisiifolia, post-emergence, 240 h, 0 to 100 scale, read-out: Plant response rating, Ragweed
Summary of the method: as §2

[7] = test system: blackgrass (Alopecurus myosuroides); assay: Test A postemergence; details: Alopecurus myosuroides, post-emergence, 240 h, 0 to 100 scale, read-out: Plant response rating, Blackgrass
Summary of the method: as §2

[8] = test system: pigweed (Amaranthus retroflexus); assay: Test A postemergence; details: Amaranthus retroflexus, post-emergence, 240 h, 0 to 100 scale, read-out: Plant response rating, Pigweed
Summary of the method: as §2

[9] = test system: galium (catchweed bedstraw, Galium aparine); assay: Test A postemergence; details: Galium, post-emergence, 240 h, 0 to 100 scale, read-out: Plant response rating, Galium
Summary of the method: as §2

kochia (Kochia scoparia) [10] = assay: Test A postemergence; details: Bassia scoparia, post-emergence, 240 h, 0 to 100 scale, read-out: Plant response rating, Kochia
Summary of the method: as §2

[11] = test system: Italian ryegrass (Lolium multiflorum); assay: Test A postemergence; details: Lolium multiflorum, post-emergence, 240 h, 0 to 100 scale, read-out: Plant response rating, Ryegrass, Italian
Summary of the method: as §2

[12] = test system: ducksalad (Heteranthera limosa); assay: Test B flooded paddy; details: Heteranthera limosa, 336 h; 250 g ai/ha, Flood, 13 to 15 days, scale 0 (no effect) to 100 (complete control); read-out: Plant response rating, Ducksalad
Summary of the method: (§3)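 Pots were flooded to 3 cm above the soil surface at treatment, compound applied directly to the paddy water, and that depth held throughout. Plants were kept in a greenhouse for 13 to 15 days, then visually rated against untreated controls.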

[13] = test system: barnyardgrass (Echinochloa crus-galli); assay: Test B flooded paddy; details: Echinochloa crus-galli, 336 h; 250 g ai/ha, Flood, 13 to 15 days, scale 0 (no effect) to 100 (complete control); read-out: Plant response rating, Barnyardgrass
Summary of the method: as §3

[14] = test system: sedge, umbrella (small-flower umbrella sedge, Cyperus difformis); assay: Test B flooded paddy; details: Cyperus difformis, 336 h; 250 g ai/ha, Flood, 13 to 15 days, scale 0 (no effect) to 100 (complete control); read-out: Plant response rating, Sedge, Umbrella
Summary of the method: as §3

rice (Oryza sativa) = assay: Test B flooded paddy; details: Oryza sativa, 336 h; 250 g ai/ha, Flood, 13 to 15 days, scale 0 (no effect) to 100 (complete control); read-out: Plant response rating, Rice
Summary of the method: as §3

[15] = test system: barnyardgrass (Echinochloa crus-galli); assay: Test A preemergence; details: Echinochloa crus-galli, pre-emergence, 240 h
Summary of the method: as §2

[16] = test system: giant foxtail (Setaria faberii); assay: Test A preemergence; details: Setaria faberi, pre-emergence, 240 h
Summary of the method: as §2

[17] = test system: ragweed (common ragweed, Ambrosia elatior); assay: Test A preemergence; details: Ambrosia artemisiifolia, pre-emergence, 240 h
Summary of the method: as §2

[18] = test system: pigweed (Amaranthus retroflexus); assay: Test A preemergence; details: Amaranthus retroflexus, pre-emergence, 240 h
Summary of the method: as §2

kochia (Kochia scoparia) [19] = assay: Test A preemergence; details: Bassia scoparia, pre-emergence, 240 h
Summary of the method: as §2

[20] = test system: Italian ryegrass (Lolium multiflorum); assay: Test A preemergence; details: Lolium multiflorum, pre-emergence, 240 h
Summary of the method: as §2

## FC(F)c1cccc(Oc2ncc(Cl)cn2)c1Oc1ncc(Cl)cn1 [Compound 46, 2,2′-[[3-(difluoromethyl)-1,2-phenylene]bis(oxy)]bis[5-chloropyrimidine]]
[1]; 31 g ai/ha, preemergence
  pest or weed control at 31 g/ha: 25%
[1]; 62 g ai/ha, preemergence
  pest or weed control at 62 g/ha: 35%
[1]; 125 g ai/ha, preemergence
  pest or weed control at 125 g/ha: 100%
[1]; Preemergence, 16 g ai/ha
  pest or weed control at 16 g/ha: 0%
[2]; 31 g ai/ha, preemergence
  pest or weed control at 31 g/ha: 85%
[2]; 62 g ai/ha, preemergence
  pest or weed control at 62 g/ha: 95%
[2]; 125 g ai/ha, preemergence
  pest or weed control at 125 g/ha: 100%
[2]; Preemergence, 16 g ai/ha
  pest or weed control at 16 g/ha: 5%
[3]; 125 g ai/ha
  plant injury at 125 g/ha: 50%
[3]; 500 g ai/ha
  plant injury at 500 g/ha: 100%
[4]; 125 g ai/ha
  pest or weed control at 125 g/ha: 90%
[4]; 500 g ai/ha
  pest or weed control at 500 g/ha: 100%
[5]; 125 g ai/ha
  pest or weed control at 125 g/ha: 90%
[5]; 500 g ai/ha
  pest or weed control at 500 g/ha: 100%
Corn (Zea mays); 125 g ai/ha
  Corn plant response rating (crop injury, 0 = no effect, 100 = complete kill) at 125 g/ha: 90%
Corn (Zea mays); 500 g ai/ha
  Corn plant response rating (crop injury, 0 = no effect, 100 = complete kill) at 500 g/ha: 100%
[6]; 125 g ai/ha
  pest or weed control at 125 g/ha: 100%
[6]; 500 g ai/ha
  pest or weed control at 500 g/ha: 100%
[7]; 125 g ai/ha
  pest or weed control at 125 g/ha: 90%
[7]; 500 g ai/ha
  pest or weed control at 500 g/ha: 100%
[8]; 125 g ai/ha
  pest or weed control at 125 g/ha: 100%
[8]; 500 g ai/ha
  pest or weed control at 500 g/ha: 100%
[9]; 125 g ai/ha
  pest or weed control at 125 g/ha: 100%
[9]; 500 g ai/ha
  pest or weed control at 500 g/ha: 100%
Kochia (Kochia scoparia) [10]; 125 g ai/ha
  pest or weed control at 125 g/ha: 100%
Kochia (Kochia scoparia) [10]; 500 g ai/ha
  pest or weed control at 500 g/ha: 60%
[11]; 125 g ai/ha
  pest or weed control at 125 g/ha: 90%
[11]; 500 g ai/ha
  pest or weed control at 500 g/ha: 100%
[12]
  pest or weed control at 250 g/ha: 80%
[13]
  pest or weed control at 250 g/ha: 0%
[14]
  pest or weed control at 250 g/ha: 65%
Rice (Oryza sativa)
  plant injury at 250 g/ha: 10%
[15]; 125 g ai/ha, 0 to 100 scale (0 no effect, 100 complete control), read-out: Barnyardgrass plant response rating
  pest or weed control at 125 g/ha: 90%
[15]; 500 g ai/ha, 0 to 100 scale, read-out: Plant response rating, Barnyardgrass
  pest or weed control at 500 g/ha: 100%
[16]; 125 g ai/ha, 0 to 100 scale (0 no effect, 100 complete control), read-out: Foxtail, Giant plant response rating
  pest or weed control at 125 g/ha: 100%
[16]; 500 g ai/ha, 0 to 100 scale, read-out: Plant response rating, Foxtail, Giant
  pest or weed control at 500 g/ha: 100%
[17]; 125 g ai/ha, 0 to 100 scale (0 no effect, 100 complete control), read-out: Ragweed plant response rating
  pest or weed control at 125 g/ha: 90%
[17]; 500 g ai/ha, 0 to 100 scale, read-out: Plant response rating, Ragweed
  pest or weed control at 500 g/ha: 100%
[18]; 125 g ai/ha, 0 to 100 scale (0 no effect, 100 complete control), read-out: Pigweed plant response rating
  pest or weed control at 125 g/ha: 100%
[18]; 500 g ai/ha, 0 to 100 scale, read-out: Plant response rating, Pigweed
  pest or weed control at 500 g/ha: 100%
Kochia (Kochia scoparia) [19]; 125 g ai/ha, 0 to 100 scale (0 no effect, 100 complete control), read-out: Kochia plant response rating
  pest or weed control at 125 g/ha: 100%
Kochia (Kochia scoparia) [19]; 500 g ai/ha, 0 to 100 scale, read-out: Plant response rating, Kochia
  pest or weed control at 500 g/ha: 100%
[20]; 125 g ai/ha, 0 to 100 scale (0 no effect, 100 complete control), read-out: Ryegrass, Italian plant response rating
  pest or weed control at 125 g/ha: 30%
[20]; 500 g ai/ha, 0 to 100 scale, read-out: Plant response rating, Ryegrass, Italian
  pest or weed control at 500 g/ha: 80%
